Source: US20230015823A1, “METHODS OF ADMINISTERING VOXELOTOR” (Global Blood Therapeutics, Inc., priority 2019, published 2023)
Converted amounts (≈) assume the structure as drawn. “Also recorded” adds a separate entry of the source. Where two headings read alike, the source gives them in different places.

What was measured:
pregnant rabbits = assay: Embryo-fetal development study in pregnant rabbits; type: in vivo, rabbit
Description: In embryo-fetal development studies, voxelotor was administered orally to pregnant rats at 15, 50, and 250 mg/kg/day (gestation days 7 through 17) and rabbits at 25, 75, and 150 mg/kg/day (gestation days 7 through 19) through organogenesis.

[1] = Drug substance properties (solubility, hygroscopicity); type: physicochemical; settings: crystalline Form II free base
Source text: Voxelotor, the active drug substance, is a white-to-yellow-to-beige compound in crystalline Form II of its free base. It is non-hygroscopic.

hemoglobin S (HbS) = hemoglobin S (HbS) (Homo sapiens, UniProt P69905); assay: Mechanism of action: binding to HbS and HbS polymerization
Sequence of hemoglobin S (HbS) (P69905 whole entry): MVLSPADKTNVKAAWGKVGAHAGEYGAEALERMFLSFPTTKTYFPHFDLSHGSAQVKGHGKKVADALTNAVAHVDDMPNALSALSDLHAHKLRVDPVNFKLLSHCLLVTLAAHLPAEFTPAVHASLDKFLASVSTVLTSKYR
Sequence of hemoglobin S (HbS) (P68871 with tags, fused parts or gaps E7V partner limits assumed): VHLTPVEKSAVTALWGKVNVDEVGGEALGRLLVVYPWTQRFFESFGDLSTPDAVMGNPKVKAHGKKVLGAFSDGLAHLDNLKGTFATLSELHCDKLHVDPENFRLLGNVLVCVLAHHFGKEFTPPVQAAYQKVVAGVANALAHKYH

[2] = Clinical pharmacokinetics of voxelotor in plasma, whole blood and RBCs; type: in vivo, human; settings: for AUC(0-t): read-out: AUC0-24h, Geometric Mean (% CV); for Cmax: read-out: Cmax, Geometric Mean (% CV)
Source text: Voxelotor is absorbed into plasma and is then distributed predominantly into RBCs due to its preferential binding to Hb. The major route of elimination of voxelotor is by metabolism with subsequent excretion of metabolites into urine and feces. The PK are linear and voxelotor exposures increased proportionally with either single or multiple doses (Table 3) in whole blood, plasma, and RBCs. Steady-state after repeated administration is reached within 8 days and exposures of voxelotor are consistent with accumulation predicted based on single dose data in patients with SCD.
The median plasma and whole blood Tmax of voxelotor after oral administration is 2 hours. The mean peak concentrations in whole blood and RBCs are observed between 6 and 18 hours after oral administration.
(§1) Voxelotor apparent volume of distribution of the central compartment and peripheral compartment are 338 L and 72.2 L in plasma, respectively. Protein binding is 99.8% in vitro. The blood-to-plasma ratio is approximately 15:1 in patients with SCD.

Protein binding in vitro = type: in vitro ADME
Source text: as §1

[3] = PK in specific populations (age, sex, body weight, pediatric, renal impairment); type: in vivo, human
Description: The pharmacokinetic parameters of voxelotor were similar in pediatric patients 12 to <17 years and adults.
Following a single 900 mg dose of voxelotor, whole blood exposures in subjects with severe renal impairment (eGFR<30 mL/min/1.73 m^2) were 25% lower compared to healthy controls.
OXBRYTA has not been evaluated in patients with end stage renal disease requiring dialysis.

P-gp = P-gp (Homo sapiens, UniProt P08183); assay: Effect of voxelotor on P-gp: concomitant digoxin; type: in vivo; settings: concomitant use
Sequence of P-gp (P08183 whole entry): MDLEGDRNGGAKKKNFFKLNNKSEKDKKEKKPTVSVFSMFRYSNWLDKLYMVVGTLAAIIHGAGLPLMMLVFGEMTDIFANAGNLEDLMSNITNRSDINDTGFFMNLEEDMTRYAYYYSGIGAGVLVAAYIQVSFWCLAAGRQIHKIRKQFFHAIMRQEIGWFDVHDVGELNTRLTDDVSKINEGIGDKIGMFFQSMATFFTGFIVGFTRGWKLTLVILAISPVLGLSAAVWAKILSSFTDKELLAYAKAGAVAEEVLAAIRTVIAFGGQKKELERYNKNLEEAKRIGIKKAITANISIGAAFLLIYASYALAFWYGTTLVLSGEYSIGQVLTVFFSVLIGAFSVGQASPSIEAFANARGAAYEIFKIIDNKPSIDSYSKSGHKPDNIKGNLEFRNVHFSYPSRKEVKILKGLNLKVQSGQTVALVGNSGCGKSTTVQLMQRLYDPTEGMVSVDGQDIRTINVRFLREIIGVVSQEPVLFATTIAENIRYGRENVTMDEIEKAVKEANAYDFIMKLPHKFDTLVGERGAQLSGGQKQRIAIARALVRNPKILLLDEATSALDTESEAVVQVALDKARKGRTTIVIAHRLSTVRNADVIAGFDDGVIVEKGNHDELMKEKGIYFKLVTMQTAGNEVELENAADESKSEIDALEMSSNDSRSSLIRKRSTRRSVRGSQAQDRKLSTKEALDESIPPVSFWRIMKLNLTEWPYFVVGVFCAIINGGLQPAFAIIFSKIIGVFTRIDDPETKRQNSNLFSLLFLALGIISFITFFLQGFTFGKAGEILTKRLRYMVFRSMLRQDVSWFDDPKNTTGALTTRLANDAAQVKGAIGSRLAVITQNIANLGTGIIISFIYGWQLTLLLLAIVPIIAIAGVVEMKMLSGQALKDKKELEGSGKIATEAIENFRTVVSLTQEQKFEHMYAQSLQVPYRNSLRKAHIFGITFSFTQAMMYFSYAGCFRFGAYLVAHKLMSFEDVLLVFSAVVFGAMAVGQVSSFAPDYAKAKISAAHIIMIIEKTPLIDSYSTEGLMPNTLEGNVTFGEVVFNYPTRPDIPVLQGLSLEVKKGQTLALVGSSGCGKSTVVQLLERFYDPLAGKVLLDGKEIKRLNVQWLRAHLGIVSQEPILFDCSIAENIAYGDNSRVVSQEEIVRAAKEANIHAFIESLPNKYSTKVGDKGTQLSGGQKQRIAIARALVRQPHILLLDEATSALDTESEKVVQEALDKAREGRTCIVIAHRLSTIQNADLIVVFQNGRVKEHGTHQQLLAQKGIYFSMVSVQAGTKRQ

OAT1 = OAT1 (Homo sapiens, UniProt Q4U2R8); assay: In vitro transporter studies: OAT1; type: in vitro ADME
Sequence of OAT1 (Q4U2R8 whole entry): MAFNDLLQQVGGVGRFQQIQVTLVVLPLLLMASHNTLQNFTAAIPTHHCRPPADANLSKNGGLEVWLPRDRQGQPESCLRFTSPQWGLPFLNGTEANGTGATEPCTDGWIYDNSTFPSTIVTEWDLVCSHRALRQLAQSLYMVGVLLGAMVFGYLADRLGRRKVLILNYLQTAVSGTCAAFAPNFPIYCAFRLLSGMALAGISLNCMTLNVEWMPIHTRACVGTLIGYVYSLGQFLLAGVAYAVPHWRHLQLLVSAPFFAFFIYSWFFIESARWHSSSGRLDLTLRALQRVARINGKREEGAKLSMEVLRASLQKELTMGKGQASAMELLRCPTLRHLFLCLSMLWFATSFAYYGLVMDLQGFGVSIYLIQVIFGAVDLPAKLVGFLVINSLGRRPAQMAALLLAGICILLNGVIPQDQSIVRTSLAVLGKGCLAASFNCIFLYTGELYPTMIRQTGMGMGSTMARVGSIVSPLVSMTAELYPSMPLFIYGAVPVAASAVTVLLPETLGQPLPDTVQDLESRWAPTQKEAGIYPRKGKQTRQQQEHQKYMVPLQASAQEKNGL

RasH2 transgenic mice = assay: 26-week carcinogenicity study; type: in vivo, mouse; settings: 26-week study; oral doses of 30, 150, or 500 mg/kg/day
[4] = human, oral, 1500 mg, plasma, Voxelotor 1,500 mg
[5] = human, oral, 1500 mg, whole blood, Voxelotor 1,500 mg

SMILES: CC(C)n1nccc1-c1ncccc1COc1cccc(O)c1C=O [voxelotor, 2-hydroxy-6-((2-(1-isopropyl-1H-pyrazol-5-yl)pyridin-3-yl)methoxy)benzaldehyde]
- adverse developmental outcomes (pregnant rabbits; pregnant rabbits, oral 25, 75, 150 mg/kg/day, gestation days 7 through 19): no adverse developmental effects; also recorded: no evidence of adverse developmental outcomes
- exposure at highest dose level (maternal toxicity observed) relative to exposure in patients at the recommended daily dose (pregnant rabbits; rabbits, 150 mg/kg/day): 0.3 times
- hygroscopicity [1]: non-hygroscopic
- solubility in common organic solvents such as acetone and toluene [1]: highly soluble
- solubility ([1]; water): ~30 µg/mL (≈ 88.9 µM)
- inhibition of HbS polymerization (hemoglobin S (HbS)): dose-dependent inhibition of HbS polymerization
- AUC(0-t) [2, 4]: 246 µg·h/mL
- Cmax [2, 4]: 12.6 µg/mL
- AUC(0-t) [2, 5]: 3820 µg·h/mL
- Cmax [2, 5]: 179 µg/mL
- half-life ([2]; human, plasma, oral, 1500 mg, patients with SCD, read-out: terminal elimination half-life, geometric mean (converted)): 35.5 h
- Vd ([2]; human, plasma, oral, read-out: apparent volume of distribution of the central compartment): 338 L
- Tmax ([2]; human, plasma and whole blood, oral administration, read-out: median Tmax): 2 h
- time to steady-state after repeated administration ([2]; patients with SCD): ≤ 8 days
- apparent volume of distribution of the peripheral compartment ([2]; plasma): 72.2 L
- Half-life, Geometric Mean (% CV) ([2]; plasma, Voxelotor 1,500 mg): 35.5 (25) hours
- apparent oral clearance ([2]; plasma, patients with SCD): 6.7 L/h
- PK linearity ([2]; single or multiple doses, whole blood, plasma and RBCs): linear
- fraction unbound (Protein binding in vitro): 0.002
- differences in pharmacokinetics based on age (12 to 59 years), sex, body weight (28 to 135 kg), or mild to severe renal impairment (CLcr 15-89 mL/min) ([3]; in vivo): No clinically significant differences
- effect of renal function on the excretion of voxelotor ([3]; in vivo): no clinically significant effect
- pharmacokinetic parameters in pediatric patients 12 to <17 years vs adults ([3]; in vivo): similar
- whole blood exposures lower compared to healthy controls ([3]; severe renal impairment (eGFR<30 mL/min/1.73 m^2), single 900 mg dose): 25%
- unbound plasma concentrations vs healthy controls ([3]; severe renal impairment, single 900 mg dose): comparable
- effect on digoxin (a P-gp substrate) (P-gp): did not alter digoxin to a clinically relevant extent
- inhibition of OAT1 (OAT1): not an inhibitor
- carcinogenicity (RasH2 transgenic mice): not carcinogenic
